pIC50: −log10 of the molar value. Where two headings read alike, the source gives them in different places.
Tests used:
human COX-2 = biological target: T1, human COX-2 (Homo sapiens, UniProt P35354); assay: Cell based assay, COS cells stably transfected with human COX-2, PGE2 release
T1 construct: expressed in transfected cells; host or cells: COS cells, stably transfected
T1 sequence (P35354 18-604): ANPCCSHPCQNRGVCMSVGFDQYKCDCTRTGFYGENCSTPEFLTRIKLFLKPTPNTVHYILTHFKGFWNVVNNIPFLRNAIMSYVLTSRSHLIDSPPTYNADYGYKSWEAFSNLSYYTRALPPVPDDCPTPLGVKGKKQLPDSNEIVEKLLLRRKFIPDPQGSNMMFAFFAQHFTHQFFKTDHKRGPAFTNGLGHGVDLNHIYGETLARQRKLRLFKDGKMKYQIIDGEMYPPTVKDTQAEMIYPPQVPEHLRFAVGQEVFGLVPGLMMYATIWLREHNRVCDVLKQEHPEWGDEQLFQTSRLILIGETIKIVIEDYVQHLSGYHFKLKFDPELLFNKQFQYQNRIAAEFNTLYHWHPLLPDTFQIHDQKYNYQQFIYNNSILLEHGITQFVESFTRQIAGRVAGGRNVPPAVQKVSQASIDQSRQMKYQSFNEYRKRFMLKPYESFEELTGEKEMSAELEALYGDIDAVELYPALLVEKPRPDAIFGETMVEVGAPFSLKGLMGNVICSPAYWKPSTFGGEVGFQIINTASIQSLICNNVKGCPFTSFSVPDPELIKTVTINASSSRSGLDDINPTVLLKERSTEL
Method: (§1) Inhibitory activity against human COX-1 and COX-2 was assessed in COS cells which had been stably transfected with cDNA for human COX-1 and human COX-2. 24 Hours prior to experiment, COS cells were transferred from the 175 cm^2 flasks in which they were grown, onto 24-well cell culture plates using the following procedure. The incubation medium (Dulbecco's modified eagles medium (DMEM) supplemented with heat-inactivated foetal calf serum (10% v/v), penicillin (100 IU/ml), streptomycin (100 μg/ml) and geneticin (600 μg/ml)) was removed from a flask of confluent cells (1 flask at confluency contains approximately 1×10^7 cells). 5 ml of phosphate buffered saline (PBS) was added to the flask to wash the cells. Having discarded the PBS, cells were then incubated with 5 ml trypsin for 5 minutes in an incubator (37°). The flask was then removed from the incubator and 5 ml of fresh incubation medium was added. The contents of the flask was transferred to a 250 ml sterile container and the volume of incubation medium subsequently made up to 100ml. 1 ml cell suspension was pipetted into each well of 4×24-well cell culture plates. The plates were then placed in an incubator (37° C., 95% air/5% CO2) overnight. If more than 1 flask of cells were required, the cells from the individual flasks were combined before being dispensed into the 24-well plates.
(§2) Following the overnight incubation, the incubation medium was completely removed from the 24-well cell culture plates and replaced with 250 μl fresh DMEM (37° C.). The test compounds were made up to 250× the required test concentration in DMSO and were added to the wells in a volume of 1 μl. Plates were then mixed gently by swirling and then placed in an incubator for 1 hour (37° C., 95% air/5% CO2). Following the incubation period, 10 μl of arachidonic acid (750 μM) was added to each well to give a final arachidonic acid concentration of 30 μM. Plates were then incubated for a further 10 minutes, after which the incubation medium was removed from each well of the plates and stored at −20° C., prior to determination of prostaglandin E2 (PGE2) levels using enzyme immunoassay. […] The selectivity ratio of inhibition of COX-1 versus COX-2 was calculated by comparing respective IC50 values.

COX-1 [1] = biological target: T2, COX-1 (Homo sapiens, UniProt P23219); assay: Cell based assay, COS cells stably transfected with human COX-1, PGE2 release; design: expressed in transfected cells; host or cells: COS cells, stably transfected
T2 sequence (P23219 24-599): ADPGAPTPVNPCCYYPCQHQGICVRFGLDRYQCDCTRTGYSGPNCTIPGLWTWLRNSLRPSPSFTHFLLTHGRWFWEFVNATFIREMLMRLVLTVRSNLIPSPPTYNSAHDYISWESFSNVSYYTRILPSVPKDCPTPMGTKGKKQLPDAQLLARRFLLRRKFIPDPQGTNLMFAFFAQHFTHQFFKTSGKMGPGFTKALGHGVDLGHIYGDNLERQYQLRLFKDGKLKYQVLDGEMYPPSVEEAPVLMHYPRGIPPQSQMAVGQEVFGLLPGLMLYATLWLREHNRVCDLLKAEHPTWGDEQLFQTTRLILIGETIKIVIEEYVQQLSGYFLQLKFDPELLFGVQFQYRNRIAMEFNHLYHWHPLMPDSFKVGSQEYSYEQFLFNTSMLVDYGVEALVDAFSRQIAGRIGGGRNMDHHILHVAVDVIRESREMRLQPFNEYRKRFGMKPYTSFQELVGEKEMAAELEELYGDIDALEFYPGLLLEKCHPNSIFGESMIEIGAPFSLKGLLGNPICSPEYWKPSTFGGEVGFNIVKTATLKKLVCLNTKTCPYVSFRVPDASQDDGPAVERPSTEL
Method: as §1, §2

microsomal h-COX2 = biological target: T3, microsomal h-COX2 (Homo sapiens, UniProt P35354); assay: Microsomal assay, h-COX2 microsomal preparation from baculovirus infected SF9 cells; assay type: biochemical
T3 construct: made in house; host or cells: baculovirus infected SF9 cells (microsomal preparation)
T3 sequence (P35354 18-604): T1 sequence (P35354 18-604)
Method: Inhibitory activity against microsomal h-COX2 was assessed against a microsomal preparation from baculovirus infected SF9 cells. An aliquot of microsomal preparation was thawed slowly on ice and a 1/40,000 dilution prepared from it into the assay buffer (sterile water, degassed with argon containing 100 mM HEPES (pH 7.4), 10 mM EDTA (pH7.4), 1 mM phenol, 1 mM reduced glutathione, 20 mg/ml gelatin and 0.001 mM Hematin). Once diluted the enzyme solution was then sonicated for 5 seconds (Branson sonicator, setting 4, 1 cm tip) to ensure a homogeneous suspension. 155 μl enzyme solution was then added to each well of a 96-well microtitre plate containing either 5 μl test compound (40× required test concentration) or 5 μl DMSO for controls. Plates were then mixed and incubated at room temperature for 1 hour. Following the incubation period, 40 μl of 0.5 μM arachidonic acid was added to each well to give a final concentration of 0.1 μM. Plates were then mixed and incubated for exactly 10 minutes (room temperature) prior to addition of […] HCl (hydrochloric acid) to each well to stop the reaction. 25 μl of 1 M NaOH (sodium hydroxide) was then added to each well to neutralise the solution prior to determination of PGE2 levels by enzyme immunoassay (EIA).

COX-1 [2] = biological target: T2, COX-1; assay: Microsomal assay, COX-1; assay type: biochemical
[3] = microsomal assay, PGE2 by EIA, 0.1 μM arachidonic acid, read-out: COX-2: IC50

| Compound | pIC50 (human COX-2) | pIC50 (COX-1 [1]) | pIC50 (microsomal h-COX2; [3]) | pIC50 (COX-1 [2]) | further results |
| --- | --- | --- | --- | --- | --- |
| CS(=O)(=O)c1ccc(-c2cc(C(F)(F)F)nc(Oc3ccc(F)cc3)n2)cc1 [Example 1, 2-(4-Fluorophenoxy)-4-[4-(methylsulfonyl)phenyl]-6-(trifluoromethyl)pyrimidine] | > 9.00 | 4.09 | – | – | – |
| CS(=O)(=O)c1ccc(-c2cc(C(F)(F)F)nc(Oc3ccc(F)c(F)c3)n2)cc1 [Example 2] | 7.64 | 5.01 | – | – | – |
| COc1ccc(Oc2nc(-c3ccc(S(C)(=O)=O)cc3)cc(C(F)(F)F)n2)cc1 [Example 3] | 8.40 | 5.53 | – | – | – |
| CS(=O)(=O)c1ccc(-c2cc(C(F)(F)F)nc(Oc3ccc(Br)cc3)n2)cc1 [Example 5] | 8.22 | 4.21 | – | – | – |
| Cc1ccc(Oc2nc(-c3ccc(S(C)(=O)=O)cc3)cc(C(F)(F)F)n2)cc1 [Example 6] | – | – | > 8.00 | 5.43 | – |
| CS(=O)(=O)c1ccc(-c2cc(C(F)(F)F)nc(Oc3cncc(Cl)c3)n2)cc1 [Example 7, 2-[(5-chloropyridin-3-yl)oxy]-4-[4-(methylsulfony)phenyl]-6-(trifluoromethyl)pyrimidine] | – | – | > 8.00 | 4.10 | – |
| CS(=O)(=O)c1ccc(-c2cc(C(F)(F)F)nc(OC3CCCCC3)n2)cc1 [Example 8, 2-(cyclohexyloxy)-4-[4-(methylsulfonyl)phenyl]-6-(trifluoromethyl)pyrimidine] | – | – | – | 5.73 | – |
| CS(=O)(=O)c1ccc(-c2cc(C(F)(F)F)nc(OCC3CCCC3)n2)cc1 [Example 9] | – | – | – | – | pIC50 (microsomal h-COX2): 7.66 |
| CCCCOc1nc(-c2ccc(S(C)(=O)=O)cc2)cc(C(F)(F)F)n1 [Example 10, 2-Butoxy-4-[4-(methylsulfonyl)phenyl]-6-(trifluoromethyl)pyrimidine] | – | – | 7.66 | – | – |
